Data as given in PubChem BioAssay (NCI).
“And” between values parts separate entries of the source, which are not always exact repeats. Identical values can stand only once.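 Dose response: 5 concentrations. Exposure: 48 h. Format: 96-well plates. Endpoint: linear interpolation; highest concentration if not reached. Definition used: TGI = concentration required for complete inhibition of growth.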

How the values were obtained:
Test in all cases: inhibition of tumour cell growth, NCI panel, 48 h
786-0 renal = tested on: 786-0 renal
HOP-92 NSCLC = tested on: HOP-92 NSCLC
NCI-H226 lung = tested on: NCI-H226 lung
U251 CNS = tested on: U251 CNS
OVCAR-5 ovarian = tested on: OVCAR-5 ovarian
IGROV1 ovarian = tested on: IGROV1 ovarian
K-562 leukemia = tested on: K-562 leukemia
M14 melanoma = tested on: M14 melanoma
KM12 colon = tested on: KM12 colon
HS 578T breast = tested on: HS 578T breast
MALME-3M melanoma = tested on: MALME-3M melanoma
SK-MEL-2 melanoma = tested on: SK-MEL-2 melanoma

Cc1ccc2c(c1)-c1nc(N)c(C#N)c(-c3ccccc3)c1CCS2(=O)=O
TGI (786-0 renal): 44.1 µM | TGI (HOP-92 NSCLC): 80.3 µM | TGI (NCI-H226 lung): 78.5 µM | TGI (U251 CNS): > 100 µM | TGI (OVCAR-5 ovarian): > 100 µM | TGI (IGROV1 ovarian): > 100 µM | TGI (K-562 leukemia): > 100 µM | TGI (M14 melanoma): > 100 µM | TGI (KM12 colon): > 100 µM | TGI (HS 578T breast): 68.1 µM | TGI (MALME-3M melanoma): 87.3 µM | TGI (SK-MEL-2 melanoma): > 100 µM

CC1=C(C(=O)Nc2ccccc2)C2(CCCCC2)C(C#N)=C(SCC(=O)Nc2ccc(Br)cc2)N1
TGI (786-0 renal): 13.3 µM | TGI (HOP-92 NSCLC): 8.44 µM | TGI (NCI-H226 lung): 23 µM | TGI (U251 CNS): 15.3 µM | TGI (OVCAR-5 ovarian): 14.6 µM | TGI (IGROV1 ovarian): 14.6 µM | TGI (K-562 leukemia): 23 µM | TGI (M14 melanoma): 10.9 µM | TGI (KM12 colon): > 26 µM | TGI (HS 578T breast): 44.9 µM | TGI (MALME-3M melanoma): 7.48 µM | TGI (SK-MEL-2 melanoma): 6.6 µM

O=C1Oc2cc(O)cc(/C=C/c3ccc(O)cc3)c2[C@@]12c1c(O)cc(O)cc1OC2c1cccc(O)c1 (some centres not stated)
TGI (786-0 renal): 59.7 µM | TGI (HOP-92 NSCLC): > 100 µM | TGI (NCI-H226 lung): 93.2 µM | TGI (U251 CNS): > 100 µM | TGI (OVCAR-5 ovarian): 92.4 µM | TGI (IGROV1 ovarian): 31 µM | TGI (K-562 leukemia): > 100 µM | TGI (M14 melanoma): > 100 µM | TGI (KM12 colon): > 100 µM | TGI (HS 578T breast): 56.6 µM | TGI (MALME-3M melanoma): > 100 µM | TGI (SK-MEL-2 melanoma): 54.8 µM

COc1ccccc1C(=O)c1c(NCc2ccccc2)c(=O)c1=O
TGI (786-0 renal): > 100 µM | TGI (HOP-92 NSCLC): > 100 µM | TGI (NCI-H226 lung): > 100 µM | TGI (U251 CNS): > 100 µM | TGI (OVCAR-5 ovarian): > 100 µM | TGI (IGROV1 ovarian): 95 µM | TGI (K-562 leukemia): > 100 µM | TGI (M14 melanoma): > 100 µM | TGI (KM12 colon): > 100 µM | TGI (HS 578T breast): > 100 µM | TGI (MALME-3M melanoma): 75.9 µM | TGI (SK-MEL-2 melanoma): > 100 µM

CC(C)NC(=O)CN1CCN(c2c(O)c3c(c(O)c2Cl)C(=O)C=CC3=O)CC1
TGI (786-0 renal): 6.14 µM | TGI (HOP-92 NSCLC): 4.16 µM | TGI (NCI-H226 lung): 41.5 µM | TGI (U251 CNS): 10.3 µM | TGI (OVCAR-5 ovarian): 6.54 µM | TGI (IGROV1 ovarian): 4.66 µM | TGI (K-562 leukemia): > 100 µM | TGI (M14 melanoma): 2.93 µM | TGI (KM12 colon): 18.4 µM | TGI (HS 578T breast): 6.42 µM | TGI (MALME-3M melanoma): 2.7 µM | TGI (SK-MEL-2 melanoma): 3.1 µM

COI1NC(=O)c2ccccc21
TGI (786-0 renal): > 100 µM | TGI (HOP-92 NSCLC): > 100 µM | TGI (NCI-H226 lung): > 100 µM | TGI (U251 CNS): > 100 µM | TGI (OVCAR-5 ovarian): > 100 µM | TGI (IGROV1 ovarian): > 100 µM | TGI (K-562 leukemia): > 100 µM | TGI (M14 melanoma): > 100 µM | TGI (KM12 colon): > 100 µM | TGI (HS 578T breast): > 100 µM | TGI (MALME-3M melanoma): > 100 µM | TGI (SK-MEL-2 melanoma): > 100 µM

N#Cc1c(N)nc(Sc2ccccc2N)c(C#N)c1-c1ccc(Cl)cc1
TGI (786-0 renal): 42.7 µM | TGI (HOP-92 NSCLC): 53.1 µM | TGI (NCI-H226 lung): > 100 µM | TGI (U251 CNS): 24.5 µM | TGI (OVCAR-5 ovarian): > 87.3 µM | TGI (IGROV1 ovarian): 33.6 µM | TGI (K-562 leukemia): > 42 µM | TGI (M14 melanoma): 38.5 µM | TGI (KM12 colon): 35.9 µM | TGI (HS 578T breast): 32 µM | TGI (MALME-3M melanoma): 27.7 µM | TGI (SK-MEL-2 melanoma): 18.2 µM

CCC(=O)Nc1ccc(N2C(=O)C(Cl)C2c2ccc(SC)cc2)cc1 (configuration not stated)
TGI (786-0 renal): > 100 µM | TGI (HOP-92 NSCLC): > 100 µM | TGI (NCI-H226 lung): 98.1 µM | TGI (OVCAR-5 ovarian): > 100 µM | TGI (IGROV1 ovarian): > 100 µM | TGI (K-562 leukemia): > 100 µM | TGI (M14 melanoma): > 100 µM | TGI (KM12 colon): > 100 µM | TGI (HS 578T breast): > 100 µM | TGI (MALME-3M melanoma): > 100 µM | TGI (SK-MEL-2 melanoma): > 100 µM

CC(=O)c1cc2ccccc2oc1=O
TGI (786-0 renal): > 100 µM | TGI (HOP-92 NSCLC): > 100 µM | TGI (NCI-H226 lung): > 100 µM | TGI (U251 CNS): > 100 µM | TGI (OVCAR-5 ovarian): > 100 µM | TGI (IGROV1 ovarian): > 100 µM | TGI (K-562 leukemia): > 100 µM | TGI (M14 melanoma): > 100 µM | TGI (KM12 colon): > 100 µM | TGI (HS 578T breast): > 100 µM | TGI (MALME-3M melanoma): > 100 µM | TGI (SK-MEL-2 melanoma): > 100 µM

Cn1c(-c2cccc([N+](=O)[O-])c2)[n+](C)c2ccccc21
TGI (786-0 renal): > 100 µM | TGI (HOP-92 NSCLC): > 100 µM | TGI (NCI-H226 lung): > 100 µM | TGI (U251 CNS): > 100 µM | TGI (OVCAR-5 ovarian): > 100 µM | TGI (IGROV1 ovarian): > 100 µM | TGI (K-562 leukemia): > 100 µM | TGI (M14 melanoma): > 100 µM | TGI (KM12 colon): > 100 µM | TGI (HS 578T breast): > 100 µM | TGI (MALME-3M melanoma): > 100 µM | TGI (SK-MEL-2 melanoma): > 100 µM

COC(=O)C1OC(O[C@H]2CC[C@]3(C)[C@H]4CC=C5[C@@H]6CC(C)(C)CC[C@]6(C(=O)OC6OCC(O)C(O)C6OC6OC(C)C(OC7OCC(O)C(O)C7O)C(O)C6O)CC[C@@]5(C)[C@]4(C)CC[C@H]3C2(C)C)C(O)C(O)C1O (some centres not stated)
TGI (786-0 renal): 29.2 µM and 32.4 µM | TGI (HOP-92 NSCLC): 30.9 µM and 39.4 µM | TGI (NCI-H226 lung): 37.7 µM and 37.2 µM | TGI (U251 CNS): 33.3 µM and 33.8 µM | TGI (OVCAR-5 ovarian): 31.4 µM and 42.8 µM | TGI (IGROV1 ovarian): 75 µM and > 100 µM | TGI (K-562 leukemia): 64.6 µM and 62.2 µM | TGI (M14 melanoma): 28.6 µM and 32.5 µM | TGI (KM12 colon): 30.3 µM | TGI (HS 578T breast): 39.4 µM and 35.9 µM | TGI (MALME-3M melanoma): 29 µM and 32.8 µM | TGI (SK-MEL-2 melanoma): 31.8 µM and 34.7 µM

COc1cc(/C=C/C(=O)C2(C(=O)/C=C/c3cc(OC)c(OC)c(OC)c3)CCCCC2)cc(OC)c1OC
TGI (786-0 renal): > 100 µM | TGI (HOP-92 NSCLC): 68 µM | TGI (NCI-H226 lung): > 100 µM | TGI (U251 CNS): > 100 µM | TGI (OVCAR-5 ovarian): > 100 µM | TGI (IGROV1 ovarian): > 100 µM | TGI (K-562 leukemia): > 100 µM | TGI (M14 melanoma): 81.7 µM | TGI (KM12 colon): 75.9 µM | TGI (HS 578T breast): 89.8 µM | TGI (MALME-3M melanoma): > 100 µM | TGI (SK-MEL-2 melanoma): > 100 µM

Cc1cc(=O)oc2c(CNC(Cc3ccccc3)C(=O)O)c(O)ccc12 (configuration not stated)
TGI (786-0 renal): > 100 µM | TGI (HOP-92 NSCLC): > 100 µM | TGI (NCI-H226 lung): > 100 µM | TGI (U251 CNS): > 100 µM | TGI (OVCAR-5 ovarian): > 100 µM | TGI (IGROV1 ovarian): > 100 µM | TGI (K-562 leukemia): > 100 µM | TGI (M14 melanoma): > 100 µM | TGI (KM12 colon): > 100 µM | TGI (HS 578T breast): > 100 µM | TGI (MALME-3M melanoma): > 100 µM | TGI (SK-MEL-2 melanoma): > 100 µM

CCOC(=O)c1c(N2CCOCC2)[nH]c(=O)c(C(c2ccco2)c2c(O)c(C(=O)OCC)c(N3CCOCC3)[nH]c2=O)c1O
TGI (786-0 renal): > 100 µM | TGI (HOP-92 NSCLC): > 100 µM | TGI (NCI-H226 lung): > 100 µM | TGI (U251 CNS): > 100 µM | TGI (OVCAR-5 ovarian): > 100 µM | TGI (K-562 leukemia): > 100 µM | TGI (M14 melanoma): > 100 µM | TGI (KM12 colon): > 100 µM | TGI (HS 578T breast): > 100 µM | TGI (MALME-3M melanoma): > 100 µM | TGI (SK-MEL-2 melanoma): > 100 µM

O=[N+]([O-])c1cc(-c2nc(-c3ccccc3)c(-c3ccccc3)[nH]2)c(O)c([N+](=O)[O-])c1
TGI (786-0 renal): 48.6 µM | TGI (HOP-92 NSCLC): 36.9 µM | TGI (NCI-H226 lung): 40.7 µM | TGI (U251 CNS): 29.5 µM | TGI (OVCAR-5 ovarian): 50.3 µM | TGI (IGROV1 ovarian): > 100 µM | TGI (K-562 leukemia): > 100 µM | TGI (M14 melanoma): 46.4 µM | TGI (KM12 colon): 65.1 µM | TGI (HS 578T breast): > 100 µM | TGI (MALME-3M melanoma): 52 µM | TGI (SK-MEL-2 melanoma): 38.3 µM

O=C1CSC(c2cccc([N+](=O)[O-])c2)N1c1ccc(-n2c(-c3ccccc3)nc3ccccc3c2=O)cc1 (configuration not stated)
TGI (786-0 renal): > 100 µM | TGI (HOP-92 NSCLC): > 100 µM | TGI (NCI-H226 lung): > 100 µM | TGI (U251 CNS): > 100 µM | TGI (OVCAR-5 ovarian): > 100 µM | TGI (IGROV1 ovarian): > 100 µM | TGI (K-562 leukemia): > 100 µM | TGI (M14 melanoma): > 100 µM | TGI (KM12 colon): > 100 µM | TGI (HS 578T breast): > 100 µM | TGI (MALME-3M melanoma): > 100 µM | TGI (SK-MEL-2 melanoma): > 100 µM

CC(=O)OCc1ccc2oc(=O)c(C(=O)Oc3ccccc3)cc2c1
TGI (786-0 renal): 45.8 µM | TGI (HOP-92 NSCLC): 40.2 µM | TGI (NCI-H226 lung): > 100 µM | TGI (U251 CNS): > 100 µM | TGI (OVCAR-5 ovarian): > 100 µM | TGI (IGROV1 ovarian): > 100 µM | TGI (K-562 leukemia): 30 µM | TGI (M14 melanoma): > 100 µM | TGI (KM12 colon): > 100 µM | TGI (HS 578T breast): > 100 µM | TGI (MALME-3M melanoma): > 100 µM | TGI (SK-MEL-2 melanoma): > 100 µM
